Assay results as given in patent publication US12268683B2, “Compounds and methods for synergistic activation of M channels” (THE REGENTS OF THE UNIVERSITY OF CALIFORNIA, priority 2018, dated 2025).
Like-named read-outs stand apart in the source and are kept apart here.

What was measured:
Format in all cases: cell-based
KCNQ4 = KCNQ4 (Homo sapiens, UniProt P56696); test: TEVC of homomeric KCNQ4 expressed in Xenopus oocytes
Excerpt: (§1) cRNA transcripts encoding human KCNA1, KCNQ1, KCNQ2, KCNQ3, KCNQ4, or KCNQ5 were generated by in vitro transcription using the T7 polymerase message machine kit (Thermo Fisher Scientific), after vector linearization, from cDNA sub-cloned into plasmids incorporating X. laevis β-globin 5′ and 3′ UTRs flanking the coding region to enhance translation and cRNA stability. cRNA was quantified by spectrophotometry. Mutant cDNAs were generated by site-directed mutagenesis using a QuikChange kit according to manufacturer's protocol (Stratagene, San Diego, Calif.) and corresponding cRNAs prepared as above. Defolliculated stage V and VI X. laevis oocytes (Ecocyte Bioscience, Austin, Tex.) were injected with Kv channel a subunit cRNAs (10 ng total per oocyte). Oocytes were incubated at 16° C. in Barth's saline solution (Ecocyte) containing penicillin and streptomycin, with daily washing, for 3-5 days prior to two-electrode voltage-clamp (TEVC) recording.
(§2) TEVC recording was performed at room temperature with an OC-725C amplifier (Warner Instruments, Hamden, Conn.) and pClamp10.2 software (Molecular Devices, Sunnyvale, Calif.) 3-5 days after cRNA injection as described in the section above. Oocytes were placed in a small-volume oocyte bath (Warner) and viewed with a dissection microscope. Chemicals were sourced from Sigma. Bath solution was (in mM): 96 NaCl, 4 KCl, 1 MgCl2, 1 CaCl2. 10 HEPES (pH 7.6). […] MTX (DMSO), sorbic acid (ethanol), and glutaconic acid (molecular grade H2O) were stored at −20° C. as 1 M stocks. Oleamide was stored as a 1 mM stock in ethanol at 4° C. Palmitic acid was conjugated with bovine serum albumin as a 1 mM stock and stored at −20° C. All compounds were diluted to working concentrations each experimental day. All compounds were introduced to the recording bath via gravity perfusion at a constant flow of 1 ml/min for 3 min prior to recording. Pipettes were of 1-2 MΩ resistance when filled with 3 M KCl. Currents were recorded in response to pulses between −80 and +40 mV at 20 mV intervals, or a single pulse to +40 mV, from a holding potential of −80 mV, to yield current-voltage relationships, current magnitude, and for quantifying activation rate. TEVC data analysis was performed with Clampfit10.2 (Molecular Devices) and Graphpad Prism software (GraphPad, San Diego, Calif., USA); values are stated as mean±SEM. Normalized tail currents were plotted versus prepulse voltage and fitted with a single Boltzmann function:
(§3) cRNA transcripts encoding human KCNQ2, KCNQ3, KCNQ4, KCNQ5 (Kv7.2-Kv7.5) were generated by in vitro transcription using the T7 polymerase mMessage mMachine kit (Thermo Fisher Scientific), after vector linearization, from cDNA sub-cloned into plasmids incorporating Xenopus laevis β-globin 5′ and 3′ UTRs flanking the coding region to enhance translation and cRNA stability. cRNA was quantified by spectrophotometry. Mutant KCNQ2 and KCNQ3 cDNAs were generated with site-directed mutagenesis using a QuikChange kit according to the manufacturer's protocol (Stratagene, San Diego, Calif.) and corresponding cRNAs prepared as above. Defolliculated stage V and VI Xenopus laevis oocytes (Ecocyte Bioscience, Austin, Tex.) were injected with KCNQ channel α subunit cRNAs (5-10 ng). The oocytes were incubated at 16° C. in Barth's saline solution (Ecocyte) containing penicillin and streptomycin, with daily washing, for 2-5 days prior to two-electrode voltage-clamp (TEVC) recording.
(§4) TEVC recording was performed at room temperature using a OC-725C amplifier (Warner Instruments, Hamden, Conn.) and pClamp8 software (Molecular Devices, Sunnyvale, Calif.) 2-5 days after cRNA injection as described in the section above. The oocytes were placed in a small-volume oocyte bath (Warner) and viewed with a dissection microscope. Unless otherwise stated, chemicals were sourced from Sigma. Bath solution was (in mM): 96 NaCl, 4 KCl, 1 MgCl2, 1 CaCl2, 10 HEPES (pH 7.6).

KCNQ3* (KCNQ3-A315T) = KCNQ3* (KCNQ3-A315T) (Homo sapiens, UniProt O43525, A315T); test: TEVC of homomeric KCNQ3* expressed in Xenopus oocytes
Excerpt: as §1, §2, §3, §4

KCNQ2 = KCNQ2 (Homo sapiens, UniProt O43526); test: TEVC of homomeric KCNQ2 expressed in Xenopus oocytes
Excerpt: as §1, §2, §3, §4

## CS(=O)(=O)N(CC(=O)O)c1cccc(F)c1 [3FMSG]
KCNQ4
  effect on KCNQ4 (in words): negligible effects
KCNQ3* (KCNQ3-A315T)
  relative Na+ permeability of KCNQ3* compared to K+: induces a similar increase in relative Na^+ permeability
KCNQ3* (KCNQ3-A315T); Example 4, read-out: EC50, ΔV0.5act of KCNQ3*
  EC50: 0.018 ± 0.012 µM
KCNQ2
  effect of tenfold excess (100 μM) on KCNQ2 activation by 2FPG (10 μM): subtly reduced the efficacy
  effect on KCNQ2 (in words): negligible effects

## NCC1(CC(=O)O)CCCCC1 [gabapentin, reference compound]
KCNQ4
  effect on KCNQ4 (in words): insensitive
KCNQ3* (KCNQ3-A315T)
  effect on KCNQ3* (in words): activated
KCNQ3* (KCNQ3-A315T); −60 mV
  maximal fold increase in KCNQ3 current: 4 fold
KCNQ3* (KCNQ3-A315T); −60 mV, read-out: EC50 of KCNQ3* activation by gabapentin
  EC50: 0.0053 µM
KCNQ2
  effect on KCNQ2 (in words): insensitive

## CCCCCCCCC/C=C/C=O [(E)-2-dodecenal]
KCNQ3* (KCNQ3-A315T)
  effect on KCNQ3* (in words): insensitive
KCNQ2; read-out: EC50 of KCNQ2 activation by (E)-2-dodecenal
  EC50: 0.06 ± 0.01 µM

## NCC(=O)O [glycine, reference compound]
KCNQ4
  effect on KCNQ4 (in words): unable to open
KCNQ3* (KCNQ3-A315T)
  effect on KCNQ3* (in words): no effects
KCNQ2
  effect on KCNQ2 (in words): unable to open

## CC(=O)c1c(O)c(C)c(O)c(Cc2c(O)c3c(c(C(=O)/C=C/c4ccccc4)c2O)OC(C)(C)C=C3)c1O [MTX, mallotoxin]
KCNQ4; MTX 30 μM
  shift of midpoint voltage of KCNQ4 activation: −17 mV
KCNQ4; −60 mV, read-out: EC50 of KCNQ4 activation
  EC50: 20.2 µM
KCNQ3* (KCNQ3-A315T); MTX 30 μM
  shift of midpoint voltage of KCNQ3* activation: −9 mV
KCNQ3* (KCNQ3-A315T); −60 mV, read-out: EC50 of KCNQ3* activation
  EC50: 13 µM
KCNQ2; MTX 30 μM
  shift of midpoint voltage of KCNQ2 activation: −24 mV
KCNQ2; −60 mV, read-out: EC50 of KCNQ2 activation
  EC50: 6.4 µM
